Data taken from patent US10342837B2, “Extracts and compositions of helichrysum odoratissimum for preventing and treating skin cancers” (University of Pretoria, priority 2013, dated 2019).
≈ marks a conversion by molar mass, not a printed value. Numbered stars: 1 amine (or outer) side, 2 acyl side, 3 side chain; on linkers, the order of the positions; unused ones are H or OH. Bridge positions count the residues as written; N and C are the ends. Square brackets hold non-standard residues; d marks the D form. Peptide text beside a SMILES is read from it. I, II: the chains in the order shown. Actinocin(9to1) = Cc1c2oc3c(C)ccc(C(=O)[*:1])c3nc-2c(C(=O)[*:2])c(N)c1=O; NMeV = CN[C@H](C(=O)O)C(C)C; Sar = CNCC(=O)O

Columns and labels:
Format in all cases: cell-based
A431 cells = assay: Light microscopy, haematoxylin and eosin staining of A431 cells (apoptosis); conditions: 0.025 μg/ml, 72 h exposure
Protocol: The specific concentrations of extract were chosen due to the anti-proliferative activity that was observed. Exponentially growing cells were seeded at 100,000 cell per well in 6-well plates on heat-sterilized coverslips. After 24 h incubation at 37° C. and 5% […] for cell adherence, cells were exposed to 15 μg/ml, 30 μg/ml and 7.5 μg/ml of H. odoratissimum extract including vehicle-treated control cells (2% DMSO); cells propagate in growth medium, as well as 0.025 μg/ml Actinomycin D and incubated for 72 h at 37° C. Cells were then fixed in Bouin's fixative for 30 min and stained by standard haematoxylin and eosin staining procedures (Stander et al. 2009).
The influence of H. odoratissimum was compared to a medium control, vehicle-treated control and Actinomycin D (FIG. 3).

U937 cells [1] = assay: Cytotoxicity on U937 cells; conditions: U937 cells
Source text: (§1) The cytotoxicity of the H. odoratissimum extract was first analyzed on the U937 cells to determine IC50 values at which the extract could be tested when evaluating the cytokine profile and to ensure that the concentrations of phytohemagglutinin (PHA) and pentoxifylline, used to determine the cytokine profile, was not toxic to the U937 cells.

IL-12 = IL-12 production in U937 cells (ELISA); conditions: for production of IL-12 of the controls compared to the medium control (in words): PHA at 5 μg/ml, pentoxifylline at 20 μg/ml
Protocol: (§2) The levels of cytokine production (IL-8 and IL-12) from cell supernatants were measured by enzyme-linked immunosorbent assay (ELISA) according to the manufacturer's protocol (BD Biosciences, San Diego, Calif., USA). The levels of IL-12 were determined as it was reported to act as a potential anti-tumour agent (Brunda et al. 1993). IL-8 was measured as it plays a major role in the progression of various cancer cells by invasion, migration, adhesion, proliferation (Kuai et al. 2012). Briefly U937 cells were plated at a concentration of 2.5×10^5 cell per well in a 24-well plate. The cells were incubated for 24 h with 0.1 μg/ml PMA at 37° C. and 5% CO2 to allow the monocytes to differentiate into macrophages. The cells were treated with various concentrations of H. odoratissimum extracts. Controls included 20 μg/ml pentoxifylline, 5 μg/ml phytohemagglutinin (PHA), as well as vehicle-treated control cells (1% DMSO) and a medium only control. The cells were incubated for a further 20 hrs and thereafter centrifuged at 980 rpm for 5 min to collect the cell free supernatant and analyse the concentration of IL-8 and IL-12.
(§3) H. odoratissimum was analyzed at 20 μg/ml, 15 μg/ml, 10 μg/ml and 5 μg/ml to determine whether the extract was able to induce the production of IL-12 and inhibit the production of IL-8 in phytohemagglutinin (PHA) stimulated U937 cells, the results of which are depicted in Table 2.

IL-8 = IL-8 production in U937 cells (ELISA)
Protocol: as §2, with “The cells were incubated for a further 20 hrs and thereafter centrifuged at 980 rpm for 5 min to collect the cell free supernatant and analyse the concentration of IL-8 and IL-12.” left out
as §3

U937 cells [2] = assay: Cell viability of U937 cells in cytokine production test; conditions: sample at 5 μg/ml; U937 cells
Protocol: as §2, with “The cells were incubated for a further 20 hrs and thereafter centrifuged at 980 rpm for 5 min to collect the cell free supernatant and analyse the concentration of IL-8 and IL-12.” left out
as §3

[3] = Cytotoxicity on U937 cells; conditions: human
Source text: as §1

[4] = Cell viability of U937 cells in cytokine production test; conditions: human
Protocol: as §2, with “The cells were incubated for a further 20 hrs and thereafter centrifuged at 980 rpm for 5 min to collect the cell free supernatant and analyse the concentration of IL-8 and IL-12.” left out
as §3

In the case of Cc1c2oc3c(C)ccc(C(=O)N[C@@H]4C(=O)N[C@H](C(C)C)C(=O)N5CCC[C@H]5C(=O)N(C)CC(=O)N(C)[C@@H](C(C)C)C(=O)O[C@@H]4C)c3nc-2c(C(=O)N[C@@H]2C(=O)N[C@H](C(C)C)C(=O)N3CCC[C@H]3C(=O)N(C)CC(=O)N(C)[C@@H](C(C)C)C(=O)O[C@@H]2C)c(N)c1=O [Actinomycin D] (I: T[dV]P[Sar][NMeV] / II: T[dV]P[Sar][NMeV]; ester I:1-I:C, II:1-II:C; linker I:N-II:N via Actinocin(9to1)), the “A431 cell morphology (in words)” value (A431 cells) is reported as “a great amount of cell death and total loss of cell viability”.

In the case of phytohemagglutinin [PHA], the “IC50 (in μg/ml), cytotoxicity on U937 cells” value (U937 cells [1]) is reported as 318 ± 7.8 µg/mL, the “production of IL-12 of the controls compared to the medium control (in words)” value (IL-12) is reported as “increase in IL-12” and the “IL-12” value (IL-12; sample at 5 μg/ml) is reported as 9.49 ± 3.8 pg/mL. For the same molecule, the “IL-8” value (IL-8; sample at 5 μg/ml) was 107 ± 5.6 pg/mL and the “Cell viability in %” value (U937 cells [2]) was 101% ± 0.3.

For CC(=O)CCCCn1c(=O)c2c(ncn2C)n(C)c1=O [Pentoxifylline, pentoxifylline], the IC50 [3] was 170 ± 6.4 µg/mL (≈ 611 µM), the “production of IL-12 of the controls compared to the medium control (in words)” value (IL-12) was “inhibition” and the “IL-12” value (IL-12; sample at 20 μg/ml) was 1.37 ± 0.9 pg/mL. The “IL-8” value (IL-8; sample at 20 μg/ml) was 51.2 ± 7.2 pg/mL and the viability at 20 h, 20 μg/ml [4] was 106%.
